{"source": "paper PMC5896570", "about": "(SLAS discovery : advancing life sciences R & D, 2016)", "key": {"full-length human A2AR [1]": {"molecular_target": "T1, full-length human A2AR (Homo sapiens, UniProt P29274)", "T1 sequence (P29274 whole entry)": "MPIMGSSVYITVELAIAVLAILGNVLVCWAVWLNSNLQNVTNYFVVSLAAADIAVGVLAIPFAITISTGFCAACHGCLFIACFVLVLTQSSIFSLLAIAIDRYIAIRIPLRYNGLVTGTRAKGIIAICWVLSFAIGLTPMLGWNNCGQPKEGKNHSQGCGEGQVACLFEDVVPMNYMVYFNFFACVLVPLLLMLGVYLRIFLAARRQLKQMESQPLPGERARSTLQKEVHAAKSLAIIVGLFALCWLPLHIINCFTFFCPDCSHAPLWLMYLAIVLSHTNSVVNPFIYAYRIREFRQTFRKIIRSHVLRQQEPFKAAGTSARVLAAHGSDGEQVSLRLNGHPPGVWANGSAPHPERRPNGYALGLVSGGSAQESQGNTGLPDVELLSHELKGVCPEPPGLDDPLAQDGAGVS", "format": "binding", "details": "mean ± SEM, n=16; for Kd: read-out: Kinetic KD"}, "full-length human A2AR [2]": {"molecular_target": "T1, full-length human A2AR", "format": "binding", "details": "for receptor-ligand complexes formed at equilibrium: saturation"}, "[3]": {"details": "analytical solution, fixed α 5.6%"}, "[4]": {"details": "numerical solution, fixed KD 22 nM"}}, "note": "Several values for one entry are separate records, joined by “and”; a condition that tells them apart may be missing. Equal entries are not always repeated. Where two headings read alike, the source gives them in different places.", "data": [{"smiles": "CCNC(=O)[C@H]1O[C@@H](n2cnc3c(N)nc(NCCc4ccc(CCC(=O)NCCNC(=S)Nc5ccc6c(c5)C(=O)OC6(c5ccc(O)cc5)c5ccc(O)cc5)cc4)nc32)[C@H](O)[C@@H]1O", "note": "[FITC-APEC, 2-[2-[4-[2-[2-[1,3-Dihydro-1,1-bis (4-hydroxyphenyl)-3-oxo-5-isobenzofuranthioureidyl]ethylaminocarbonyl]ethyl]phenyl]ethylamino]-5′--ethylcarboxamidoadenosine]", "values": [{"measurement": "Residence time", "setting": "full-length human A2AR [1]; [3]", "result": "22 ± 1.5", "unit": "min"}, {"measurement": "koff", "setting": "full-length human A2AR [1]; [3]", "result": "7.7 ± 0.5 x10^−4 s^−1"}, {"measurement": "kon", "setting": "full-length human A2AR [1]; [3]", "result": "1.5 ± 0.2 x10^4 (M s)^−1"}, {"measurement": "Residence time", "setting": "full-length human A2AR [1]; [4]", "result": "47 ± 3.8", "unit": "min"}, {"measurement": "koff", "setting": "full-length human A2AR [1]; [4]", "result": "3.6 ± 0.3 x10^−4 s^−1"}, {"measurement": "α (Bmax/RT)", "setting": "full-length human A2AR [1]; [4]", "result": "6.8 ± 1.1", "unit": "%"}, {"measurement": "Kd", "setting": "full-length human A2AR [1]; [3]", "result": "73 ± 15", "unit": "nM"}, {"measurement": "Kd", "setting": "full-length human A2AR [1]; [4]", "result": "22 ± 2.3", "unit": "nM"}, {"measurement": "Bmax", "setting": "full-length human A2AR [2]; equilibrium, Scatchard analysis, ± SEM, n=5", "result": "~ 5.6 % of RT and 5.6 ± 0.4 % of RT"}, {"measurement": "receptor-ligand complexes formed at equilibrium", "setting": "full-length human A2AR [2]; receptor concentration 160 nM", "result": 9, "unit": "nM"}, {"measurement": "receptor-ligand complexes formed at equilibrium", "setting": "full-length human A2AR [2]; receptor concentration 480 nM", "result": 25, "unit": "nM"}]}]}
